Test systems include CCRF-CEM; A549; UACC-257; SNB-75; KM12; SN12C; NCI-H23; HOP-92; HCT-116; HOP-62; A498; SK-MEL-5; RXF 393; SF-295; T47D; MDA-MB-435; MDA-MB-231; MCF7; MDA-N.
What all share (assay): NCI anticancer screen, dose series, 48 h

13 compounds from ChEMBL document CHEMBL1201862, “PubChem BioAssay data set” (2004) can be followed below.

Structures are written as SMILES. “And” between values parts separate entries of the source, which are not always exact repeats. Identical values can stand only once.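 Results reflect a 48-hour exposure of cells in 96-well plates to compound at five concentrations. Here, GI50 denotes the concentration required for 50% inhibition of growth.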 The source made the active and inactive calls. No stated cut-off is given here; in the data, active = GI50 up to about 1.1 µM and inactive = higher.

For `CCOC(=O)C1=C(NC(C)(C)C)OC/C1=N\NC(=O)Cc1ccccc1`, the GI50 is > 100 µM (inactive) in the assay with CCRF-CEM; > 100 µM (inactive) in the assay with A549; > 100 µM (inactive) with UACC-257; 27.9 µM (inactive) in the assay with SNB-75; > 100 µM (inactive) with KM12; > 100 µM (inactive) with SN12C. The GI50 in the assay on NCI-H23, in the assay on HOP-92, in the assay on HCT-116, in the assay on HOP-62, with A498 and with SK-MEL-5 was > 100 µM (inactive) in each case. The GI50 in the assay with RXF 393 and in the assay on SF-295 was > 100 µM (inactive) each time.

Consider `Cn1cc2ccccc2c1-c1nc(F)nc(Oc2ccc3c(c2)CC[C@@H]2C3CC[C@@]3(C)C2C[C@H](O)[C@@H]3O)n1` (some centres not stated), for which the GI50 with CCRF-CEM is 2.66 µM (inactive); in the assay with A549, 18.6 µM (inactive); in the assay on UACC-257, 23.5 µM (inactive); with SNB-75, 20.5 µM (inactive); with KM12 it was 17.7 µM (inactive); with SN12C, 13.7 µM (inactive). Further, the GI50 in the assay with NCI-H23 was 18.3 µM (inactive); with HOP-92, 22.3 µM (inactive); with HCT-116, 14.3 µM (inactive); in the assay with HOP-62, 4.45 µM (inactive); in the assay on A498, 27.3 µM (inactive); in the assay on SK-MEL-5, 17.7 µM (inactive). Further, the GI50 is 19.4 µM (inactive) in the assay on RXF 393 and 17.6 µM (inactive) in the assay with SF-295.

Regarding `CCOC(=O)CC(NCc1ccc(/N=C/c2nc3ccc(C(F)(F)F)cc3nc2-c2ccccc2)cc1)C(=O)OCC` (configuration not stated), the GI50 is > 100 µM (inactive) in the assay on CCRF-CEM; > 100 µM (inactive) in the assay on A549; > 100 µM (inactive) in the assay with UACC-257; 12.1 µM (inactive) with SNB-75; > 100 µM (inactive) with KM12; > 100 µM (inactive) in the assay with SN12C. Further, the GI50 in the assay on NCI-H23 is > 57.3 µM (inactive); in the assay with HOP-92, > 100 µM (inactive); in the assay with HCT-116, > 55.5 µM (inactive); with HOP-62, 29 µM (inactive); in the assay with A498, > 61.1 µM (inactive); in the assay with SK-MEL-5, > 78.7 µM (inactive). For the same compound, the values for the GI50 in the assay with RXF 393 and with SF-295 were 15.2 µM (inactive) and 27.2 µM (inactive), respectively.

Consider `COC1(OC)C=CC2C1C1C=CC2C1(OC)OC` (configuration not stated), for which the GI50 in the assay with CCRF-CEM, in the assay with A549, in the assay on T47D, in the assay with UACC-257, with MDA-MB-435 and in the assay with MDA-MB-231 was > 100 µM (inactive) each time. Moreover, the GI50 in the assay with SNB-75, in the assay on KM12, in the assay with SN12C, in the assay with NCI-H23, in the assay on MCF7 and with HOP-92 was > 100 µM (inactive) throughout. For the same compound, the GI50 in the assay with HCT-116, with HOP-62, in the assay on A498, in the assay on SK-MEL-5, with RXF 393 and in the assay on SF-295 was > 100 µM (inactive) each time.

For the compound `NC(=O)NC(=O)c1cnccn1`, the GI50 in the assay on CCRF-CEM, in the assay with MDA-N, in the assay with A549, with UACC-257, in the assay on MDA-MB-435 and in the assay with MDA-MB-231 was > 100 µM (inactive) each time. Also, the GI50 in the assay on KM12, with SN12C, in the assay with NCI-H23, with MCF7, with HOP-92 and in the assay with HCT-116 was > 100 µM (inactive) throughout. Further, the GI50 with HOP-62 was > 100 µM (inactive); with A498 it was > 100 µM (inactive); in the assay on SK-MEL-5, > 10 µM (inactive); in the assay with RXF 393, > 100 µM (inactive); with SF-295, > 100 µM (inactive).

Take `C[N+](C)(C)CC(=O)N/N=C(\C(=O)NC1=C(Cl)C(=O)c2ccccc2C1=O)C(C#N)c1csc(-c2ccc([N+](=O)[O-])cc2)n1` (configuration not stated): the GI50 in the assay on CCRF-CEM, in the assay on A549, in the assay on UACC-257, in the assay on SNB-75, in the assay with KM12 and with SN12C was > 100 µM (inactive) throughout. The GI50 in the assay with NCI-H23, in the assay on HOP-92, with HCT-116, with HOP-62, with A498 and with SK-MEL-5 was > 100 µM (inactive) in each case. The GI50 in the assay with RXF 393 and in the assay with SF-295 was > 100 µM (inactive) throughout.

As to `O=C(Nc1ccc(C(F)(F)F)cc1[N+](=O)[O-])C(=O)C1NC(=S)NC1=O` (configuration not stated), the GI50 with CCRF-CEM is > 100 µM (inactive); in the assay with A549 it was > 100 µM (inactive); with UACC-257, > 100 µM (inactive); in the assay on SNB-75 it was 26.6 µM (inactive); in the assay on KM12, > 100 µM (inactive); with SN12C, 2.26 µM (inactive). The GI50 with NCI-H23 was > 100 µM (inactive); with HOP-92, 43.7 µM (inactive); in the assay with HCT-116, > 100 µM (inactive); with HOP-62, > 100 µM (inactive); with A498, 53 µM (inactive); in the assay on SK-MEL-5 it was > 100 µM (inactive). For the same compound, the GI50 in the assay with RXF 393 and in the assay on SF-295 was > 100 µM (inactive) in each case.

Turning to `C=C1C(=O)OC2/C=C(\C)C(O)/C=C\C(C)(O)CC(OC(=O)/C(C)=C/C)C12` (configuration not stated), the GI50 is > 32.5 µM (inactive) in the assay on CCRF-CEM; > 100 µM (inactive) with A549; 27.2 µM (inactive) with UACC-257; > 100 µM (inactive) in the assay on SNB-75; 40.6 µM (inactive) with KM12; 22 µM (inactive) in the assay on SN12C. For the same compound, the GI50 with NCI-H23 was 39.8 µM (inactive); in the assay on HOP-92, 29.2 µM (inactive); with HCT-116 it was 16.3 µM (inactive); in the assay with HOP-62, > 100 µM (inactive); with A498, > 100 µM (inactive); in the assay on SK-MEL-5, 51.3 µM (inactive). Also, the values for the GI50 with RXF 393 and in the assay with SF-295 were 18 µM (inactive) and > 100 µM (inactive), respectively.

For `C[C@H]1CCC/C=C/[C@@H]2C[C@H](O)C[C@H]2[C@H](O)/C=C/C(=O)O1` [BREFELDIN A], the GI50 in the assay on MDA-N is 40.6 nM (active) and 42.4 nM (active); in the assay with T47D, 124 nM (active) and 71.5 nM (active); with UACC-257, 27.5 nM (active) and 16 nM (active); in the assay on SNB-75 it was < 10 nM (active) and 8.97 nM (active); with KM12 it was 10.1 nM (active) and 10.2 nM (active); in the assay with NCI-H23 it was 12.5 nM (active) and 25.1 nM (active). Moreover, the GI50 in the assay with MCF7 is < 16.4 nM (active) and 26.3 nM (active); in the assay on HOP-92 it was 80 nM (active) and 41.7 nM (active); in the assay with HCT-116, 18.2 nM (active) and 23.3 nM (active); in the assay with A498, < 10 nM (active) and 17.4 nM (active); with SK-MEL-5 it was < 10 nM (active) and 5.83 nM (active); in the assay on RXF 393 it was 14.4 nM (active) and 13.4 nM (active).

With `COc1cc([C@@H]2OC(=O)C3C2C(=O)O[C@H]3c2ccc(O)c(OC)c2)ccc1O` (some centres not stated), the GI50 in the assay with CCRF-CEM, with A549, with UACC-257, in the assay on SNB-75, in the assay on KM12 and in the assay with SN12C was > 100 µM (inactive) each time. Further, the GI50 with NCI-H23, with HOP-92, in the assay with HCT-116, with HOP-62, in the assay on A498 and in the assay with SK-MEL-5 was > 100 µM (inactive) in each case. Besides, the GI50 in the assay on RXF 393 and with SF-295 was > 100 µM (inactive) each time.

For the compound `O=C1c2ccc3c4ccccc4n(Cc4ccccc4)c3c2C(=O)N1c1ccccc1`, the GI50 with CCRF-CEM is 1.88 µM (inactive); with A549, 17.3 µM (inactive); in the assay with UACC-257 it was 15.8 µM (inactive); with SNB-75 it was 13.8 µM (inactive); in the assay on KM12, 15.5 µM (inactive); with SN12C, 16.5 µM (inactive). For the same compound, the GI50 is 12.9 µM (inactive) in the assay with NCI-H23; 11.4 µM (inactive) with HOP-92; 16.4 µM (inactive) in the assay with HCT-116; > 36.9 µM (inactive) in the assay on HOP-62; 25.1 µM (inactive) with A498; 16.1 µM (inactive) in the assay on SK-MEL-5. In addition, the figures for the GI50 with RXF 393 and with SF-295 were 12.7 µM (inactive) and 14.7 µM (inactive), respectively.

Regarding `C/C(COc1ccccc1)=N\NC(N)=S`, the GI50 with CCRF-CEM was 61.7 µM (inactive); in the assay on A549, > 100 µM (inactive); with UACC-257 it was > 100 µM (inactive); in the assay on SNB-75, > 100 µM (inactive); in the assay on KM12, 68.1 µM (inactive); in the assay with SN12C it was > 100 µM (inactive). The GI50 in the assay on NCI-H23 is > 100 µM (inactive); with HOP-92 it was > 100 µM (inactive); with HCT-116 it was > 100 µM (inactive); in the assay on HOP-62, > 100 µM (inactive); with A498, > 100 µM (inactive); in the assay with SK-MEL-5, 91.4 µM (inactive). In addition, the GI50 with RXF 393 and in the assay with SF-295 was > 100 µM (inactive) in each case.

Take `O=C(O)/C(=C/C=C/c1ccccc1)c1csc(-c2nc(/C(=C\C=C\c3ccccc3)C(=O)O)cs2)n1`: the GI50 in the assay with CCRF-CEM was 19.7 µM (inactive); in the assay on A549, 43.8 µM (inactive); in the assay with UACC-257, 34.9 µM (inactive); with SNB-75 it was 28.1 µM (inactive); in the assay with KM12, 27.9 µM (inactive); in the assay with SN12C, 28.7 µM (inactive). Besides, the GI50 with NCI-H23 is > 10 µM (inactive); with HOP-92, 19.6 µM (inactive); with HCT-116 it was 17.7 µM (inactive); in the assay with HOP-62, 18 µM (inactive); in the assay with A498, 68.2 µM (inactive); with SK-MEL-5 it was 33 µM (inactive). In addition, the GI50 is 25.2 µM (inactive) in the assay with RXF 393 and 31.6 µM (inactive) with SF-295.
